Assays:
[1] = test system: TNF alpha release from human PBMCs; assay: Inhibition of TNF alpha release from human PBMCs; format: cell-based; conditions: PBMC, LPS 1 μg/ml, 18 hours, AlphaLISA
How it was run: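 Fresh or thawed PBMCs in serum-free medium with 0.5% HSA, stimulated with 1 μg/ml LPS plus titrated compound for 18 h at 37° C. TNF-a in supernatant by AlphaLISA; window set with a reference PDE4 inhibitor at 100×IC50. EC50 and Emax from sigmoidal fits.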

[2] = molecular target: T1, glucocorticoid receptor (GR), recombinant full-length receptor protein (Homo sapiens, UniProt P04150); assay: Glucocorticoid receptor binding assay (fluorescence polarization kit); conditions: 4 nM receptor, 2.5 nM Fluormone GS1 tracer, 2h room temperature, read-out: GR binding ABS IC50
T1 construct: 4 nM recombinant, full-length receptor protein was incubated with increasing concentrations of GR ligand; purchased Life Technologies A-15897
T1 sequence (P04150 1-777): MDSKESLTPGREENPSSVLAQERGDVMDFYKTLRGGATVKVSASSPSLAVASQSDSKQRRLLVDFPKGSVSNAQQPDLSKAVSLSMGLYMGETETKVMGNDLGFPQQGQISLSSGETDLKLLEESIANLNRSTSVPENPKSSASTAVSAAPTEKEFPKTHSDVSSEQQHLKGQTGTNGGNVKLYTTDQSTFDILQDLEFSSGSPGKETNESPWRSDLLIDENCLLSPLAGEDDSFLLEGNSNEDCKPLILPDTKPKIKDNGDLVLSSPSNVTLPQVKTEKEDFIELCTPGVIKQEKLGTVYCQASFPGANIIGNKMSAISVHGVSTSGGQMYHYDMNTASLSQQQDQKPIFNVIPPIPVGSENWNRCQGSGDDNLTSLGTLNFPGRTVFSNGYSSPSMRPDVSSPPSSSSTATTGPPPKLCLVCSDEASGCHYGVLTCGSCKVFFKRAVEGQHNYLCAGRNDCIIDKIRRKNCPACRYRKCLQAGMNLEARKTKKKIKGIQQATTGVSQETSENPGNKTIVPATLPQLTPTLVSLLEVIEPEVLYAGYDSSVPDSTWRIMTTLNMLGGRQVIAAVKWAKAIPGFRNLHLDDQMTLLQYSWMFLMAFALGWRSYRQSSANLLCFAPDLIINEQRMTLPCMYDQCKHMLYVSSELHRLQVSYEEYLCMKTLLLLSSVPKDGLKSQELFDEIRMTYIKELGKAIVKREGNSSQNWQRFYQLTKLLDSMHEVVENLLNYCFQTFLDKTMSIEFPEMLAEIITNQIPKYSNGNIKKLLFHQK
Procedure: Test compounds were diluted in DMSO over seven orders of magnitude, further diluted in assay buffer and distributed into 384-well plates. The sensitivity limit of this assay was 2-4 nM.
Data were processed by sigmoidal curve fitting.
Absolute (Abs) IC50 and Emax were determined from the curve fits.

[3] = Human liver microsomes (HLM) assay; format: in vitro ADME; conditions: hepatic extraction ratio; 0.5 μM compound, 0.5 mg/mL microsomes, NADPH, 37° C.
How it was run: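 Compound at 0.5 μM incubated at 37° C. with human liver microsomes (0.5 mg/mL) and NADPH (1 mM) in phosphate buffer pH 7.4, 1% organic solvent; sampled 0-30 minutes. Clapp (mL/min/kg) and Eh (%) derived from depletion rate constant.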

In the case of `Cc1nnsc1C(=O)N[C@@H](C)[C@H](Oc1ccc(C(=O)O[C@H]2CCCN(C(=O)[C@H]3COC(=O)C3)C2)cc1)c1ccc(C2CC2)cc1` [Compound 32, [(3S)-1-[(3R)-5-oxotetrahydrofuran-3-carbonyl]-3-piperidyl] 4-[(1R,2S)-1-(4-cyclopropylphenyl)-2-[(4-methylthiadiazole-5-carbonyl)amino]propoxy]benzoate], the EC50 [1] is reported as < 0.1 µM, the IC50 [2] is reported as < 0.1 µM and the “HLM assay Eh (%)” value [3] is reported as “* (extraction ratio (Eh)>90%)”.

With `COCC(=O)N[C@@H](C)[C@H](Oc1ccc(C(=O)N[C@H]2CCCN(C(=O)[C@H]3COC(=O)C3)C2)nc1)c1ccc(C2CC2)cc1` [Compound 14, 5-[(1R,2S)-1-(4-cyclopropylphenyl)-2-[(2-methoxyacetyl)amino]propoxy]-N-[(3S)-1-[(3R)-5-oxotetrahydrofuran-3-carbonyl]-3-piperidyl]pyridine-2-carboxamide] the EC50 [1] was < 0.1 µM, the IC50 [2] was 0.1 to 0.3 µM and the “HLM assay Eh (%)” value [3] was “* (extraction ratio (Eh)>90%)”.

In the case of `CC[C@@H](O)C(=O)N[C@@H](C)[C@H](Oc1ccc(C(=O)N[C@H]2CCCN(C(=O)[C@H]3COC(=O)C3)C2)nc1)c1ccc(C2CC2)cc1` [Compound 13, 5-[(1R,2S)-1-(4-cyclopropylphenyl)-2-[[(2R)-2-hydroxybutanoyl]amino]propoxy]-N-[(3S)-1-[(3R)-5-oxotetrahydrofuran-3-carbonyl]-3-piperidyl]pyridine-2-carboxamide], the EC50 [1] is reported as < 0.1 µM, the IC50 [2] is reported as 0.1 to 0.3 µM and the “HLM assay Eh (%)” value [3] is reported as “* (extraction ratio (Eh)>90%)”.

With `Cc1scnc1C(=O)N[C@@H](C)[C@H](Oc1ccc(C(=O)O[C@H]2CCCN(C(=O)[C@H]3COC(=O)C3)C2)cc1)c1ccc(C2CC2)cc1` [Compound 29, [(3S)-1-[(3R)-5-oxotetrahydrofuran-3-carbonyl]-3-piperidyl] 4-[(1R,2S)-1-(4-cyclopropylphenyl)-2-[(5-methylthiazole-4-carbonyl)amino]propoxy]benzoate] the EC50 [1] was < 0.1 µM, the IC50 [2] was < 0.1 µM and the “HLM assay Eh (%)” value [3] was “* (extraction ratio (Eh)>90%)”.

In the case of `C[C@H](NC(=O)[C@@H]1CCCO1)[C@H](Oc1ccc(C(=O)N[C@H]2CCCN(C(=O)[C@H]3COC(=O)C3)C2)nc1)c1ccc(C2CC2)cc1` [Compound 20, 5-[(1R,2S)-1-(4-cyclopropylphenyl)-2-[[(2S)-tetrahydrofuran-2-carbonyl]amino]propoxy]-N-[(3S)-1-[(3R)-5-oxotetrahydrofuran-3-carbonyl]-3-piperidyl]pyridine-2-carboxamide], the EC50 [1] is reported as < 0.1 µM, the IC50 [2] is reported as 0.1 to 0.3 µM and the “HLM assay Eh (%)” value [3] is reported as “* (extraction ratio (Eh)>90%)”.

With `Cc1cc(C(=O)N[C@@H](C)[C@H](Oc2ccc(C(=O)O[C@H]3CCCN(C(=O)[C@H]4COC(=O)C4)C3)cc2)c2ccc(C3CC3)cc2)no1` [Compound 53, [(3S)-1-[(3R)-5-oxotetrahydrofuran-3-carbonyl]-3-piperidyl] 4-[(1R,2S)-1-(4-cyclopropylphenyl)-2-[(5-methylisoxazole-3-carbonyl)amino]propoxy]benzoate] the EC50 [1] was < 0.1 µM, the IC50 [2] was < 0.1 µM and the “HLM assay Eh (%)” value [3] was “* (extraction ratio (Eh)>90%)”.

In the case of `Cc1cc(C(=O)N[C@@H](C)[C@H](Oc2ccc(C(=O)O[C@H]3CCCN(C(=O)[C@H]4COC(=O)C4)C3)cc2)c2ccc(C3CC3)cc2)on1` [Compound 41, [(3S)-1-[(3R)-5-oxotetrahydrofuran-3-carbonyl]-3-piperidyl] 4-[(1R,2S)-1-(4-cyclopropylphenyl)-2-[(3-methylisoxazole-5-carbonyl)amino]propoxy]benzoate], the EC50 [1] is reported as < 0.1 µM, the IC50 [2] is reported as < 0.1 µM and the “HLM assay Eh (%)” value [3] is reported as “* (extraction ratio (Eh)>90%)”.

For `C[C@H](NC(=O)c1ncon1)[C@H](Oc1ccc(C(=O)O[C@H]2CCCN(C(=O)[C@H]3COC(=O)C3)C2)cc1)c1ccc(C2CC2)cc1` [Compound 39, [(3S)-1-[(3R)-5-oxotetrahydrofuran-3-carbonyl]-3-piperidyl] 4-[(1R,2S)-1-(4-cyclopropylphenyl)-2-(1,2,4-oxadiazole-3-carbonylamino)propoxy]benzoate], the EC50 [1] was < 0.1 µM, the IC50 [2] was < 0.1 µM and the “HLM assay Eh (%)” value [3] was “* (extraction ratio (Eh)>90%)”.

With `C[C@H](NC(=O)c1nccn1C)[C@H](Oc1ccc(C(=O)O[C@H]2CCCN(C(=O)[C@H]3COC(=O)C3)C2)cc1)c1ccc(C2CC2)cc1` [Compound 40, [(3S)-1-[(3R)-5-oxotetrahydrofuran-3-carbonyl]-3-piperidyl] 4-[(1R,2S)-1-(4-cyclopropylphenyl)-2-[(1-methylimidazole-2-carbonyl)amino]propoxy]benzoate] the EC50 [1] was < 0.1 µM, the IC50 [2] was < 0.1 µM and the “HLM assay Eh (%)” value [3] was “* (extraction ratio (Eh)>90%)”.

With `C[C@H](NC(=O)c1nccs1)[C@H](Oc1ccc(C(=O)O[C@H]2CCCN(C(=O)[C@H]3COC(=O)C3)C2)cc1)c1ccc(C2CC2)cc1` [Compound 46, [(3S)-1-[(3R)-5-oxotetrahydrofuran-3-carbonyl]-3-piperidyl] 4-[(1R,2S)-1-(4-cyclopropylphenyl)-2-(thiazole-2-carbonylamino)propoxy]benzoate] the EC50 [1] was < 0.1 µM, the IC50 [2] was < 0.1 µM and the “HLM assay Eh (%)” value [3] was “** (50%<extraction ratio (Eh)<90%)”.

In the case of `C[C@H](NC(=O)C(F)(F)F)[C@H](Oc1ccc(C(=O)N[C@H]2CCCN(C(=O)[C@H]3COC(=O)C3)C2)nc1)c1ccc(C2CC2)cc1` [Compound 2, 5-[(1R,2S)-1-(4-cyclopropylphenyl)-2-[(2,2,2-trifluoroacetyl)amino]propoxy]-N-[(3S)-1-[(3R)-5-oxotetrahydrofuran-3-carbonyl]-3-piperidyl]pyridine-2-carboxamide], the EC50 [1] is reported as < 0.1 µM, the IC50 [2] is reported as < 0.1 µM and the “HLM assay Eh (%)” value [3] is reported as “* (extraction ratio (Eh)>90%)”.

With `Cc1ncc(C(=O)N[C@@H](C)[C@H](Oc2ccc(C(=O)O[C@H]3CCCN(C(=O)[C@H]4COC(=O)C4)C3)cc2)c2ccc(C3CC3)cc2)s1` [Compound 36, [(3S)-1-[(3R)-5-oxotetrahydrofuran-3-carbonyl]-3-piperidyl] 4-[(1R,2S)-1-(4-cyclopropylphenyl)-2-[(2-methylthiazole-5-carbonyl)amino]propoxy]benzoate] the EC50 [1] was < 0.1 µM, the IC50 [2] was < 0.1 µM and the “HLM assay Eh (%)” value [3] was “* (extraction ratio (Eh)>90%)”.

For `C[C@H](NC(=O)c1ccon1)[C@H](Oc1ccc(C(=O)O[C@H]2CCCN(C(=O)[C@H]3COC(=O)C3)C2)cc1)c1ccc(C2CC2)cc1` [Compound 51, [(3S)-1-[(3R)-5-oxotetrahydrofuran-3-carbonyl]-3-piperidyl] 4-[(1R,2S)-1-(4-cyclopropylphenyl)-2-(isoxazole-3-carbonylamino)propoxy]benzoate], the EC50 [1] was < 0.1 µM, the IC50 [2] was < 0.1 µM and the “HLM assay Eh (%)” value [3] was “* (extraction ratio (Eh)>90%)”.

With `Cc1cnc(C(=O)N[C@@H](C)[C@H](Oc2ccc(C(=O)O[C@H]3CCCN(C(=O)[C@H]4COC(=O)C4)C3)cc2)c2ccc(C3CC3)cc2)s1` [Compound 26, [(3S)-1-[(3R)-5-oxotetrahydrofuran-3-carbonyl]-3-piperidyl] 4-[(1R,2S)-1-(4-cyclopropylphenyl)-2-[(5-methylthiazole-2-carbonyl)amino]propoxy]benzoate] the EC50 [1] was < 0.1 µM, the IC50 [2] was < 0.1 µM and the “HLM assay Eh (%)” value [3] was “* (extraction ratio (Eh)>90%)”.

With `C[C@H](NC(=O)c1ccns1)[C@H](Oc1ccc(C(=O)N[C@H]2CCCN(C(=O)[C@H]3COC(=O)C3)C2)nc1)c1ccc(C2CC2)cc1` [Compound 5, N-[(1S,2R)-2-(4-cyclopropylphenyl)-1-methyl-2-[[6-[[(3S)-1-[(3R)-5-oxotetrahydrofuran-3-carbonyl]-3-piperidyl]carbamoyl]-3-pyridyl]oxy]ethyl]isothiazole-5-carboxamide] the EC50 [1] was < 0.1 µM, the IC50 [2] was < 0.1 µM and the “HLM assay Eh (%)” value [3] was “* (extraction ratio (Eh)>90%)”.

For `C[C@H](NC(=O)C(C)(F)F)[C@H](Oc1ccc(C(=O)N[C@H]2CCCN(C(=O)[C@H]3COC(=O)C3)C2)nc1)c1ccc(C2CC2)cc1` [Compound 3, 5-[(1R,2S)-1-(4-cyclopropylphenyl)-2-(2,2-difluoropropanoylamino)propoxy]-N-[(3S)-1-[(3R)-5-oxotetrahydrofuran-3-carbonyl]-3-piperidyl]pyridine-2-carboxamide], the EC50 [1] was < 0.1 µM, the IC50 [2] was < 0.1 µM and the “HLM assay Eh (%)” value [3] was “* (extraction ratio (Eh)>90%)”.
